Data from PMC3608651, “A Broad Profile of Co-Dominant Epitopes Shapes the Peripheral Mycobacterium tuberculosis Specific CD8+ T-Cell Immune Response in South African Patients with Active Tuberculosis” (PLoS ONE, 2013).
Like-named read-outs stand apart in the source and are kept apart here.

What was measured:
Type in all cases: binding
[1] = target: HLA-C*07:01 (Homo sapiens, UniProt P10321, K90N/S123Y); conditions: duplicated experiments, positive binder >40%
[2] = target: HLA-A*30:01 (Homo sapiens, UniProt P04439, D140H/D185E/E176W/F33S/G80R/H175R/K168Q/R138E/R41S); conditions: duplicated experiments, positive binder >40%
[3] = target: HLA-A*24:02 (Homo sapiens, UniProt P04439, D101N/D140Y/D185E/E176V/E190D/F33S/G103R/G107R/I119L/I121M/I306V/K335N/L105A/L180Q/L300P/N151K/N90K/Q86E/Q94H/R106L/R138H/R89G/T104I/T345S/V100E/W191G/Y123F); conditions: duplicated experiments, positive binder >40%
[4] = target: T1, HLA-A*68:01 (Homo sapiens, UniProt P04439, A269V/D185E/E176V/E277Q/E87N/F33Y/G231S/I121M/I166T/I218V/L180W/L300P/L318F/N151K/P208A/P217A/Q86R/R169H/T345S); conditions: duplicated experiments, positive binder >40%
[5] = target: T2, HLA-A*30:02 (Homo sapiens, UniProt P04439, D101N/D140H/D185E/E176R/F33S/G80R/H175R/K168Q/Q94H/R138E/R41S/V100E); conditions: duplicated experiments, positive binder >40%
[6] = target: T3, HLA-B*58:01 (Homo sapiens, UniProt P01889, A329T/C349S/D201E/D98Y/E176V/E187L/E204Q/E69T/G107R/I218V/I90N/K202T/L105A/L119I/N104I/N87E/Q89R/Q94S/R106L/R155S/R180L/R86G/S101N/S121R/S35A/S48A/T118I/V127L/V306I/V36M/Y140S/Y91M); conditions: time points 0-8 h
[7] = target: T3, HLA-B*58:01; conditions: duplicated experiments, positive binder >40%
[8] = target: T3, HLA-B*58:01
[9] = target: HLA-A*02:01 (Homo sapiens, UniProt P04439, D140Y/D185E/D98H/E176V/E277Q/G131W/G231S/I119V/I121R/I166T/I218V/L300P/L318F/N151K/N90K/P208A/P217A/Q86G/Q94H/R138H/R169H/T345S); conditions: plate-bound monomer 0.5 µg/ml, duplicated experiments, positive binder >40%
[10] = target: HLA-B*07:02 (Homo sapiens, UniProt P01889); conditions: percent relative the binding of positive control peptide […]; duplicated experiments; positive binder >40%
[11] = target: T2, HLA-A*30:02
[12] = target: T1, HLA-A*68:01; conditions: time points 0-8 h
[13] = target: T1, HLA-A*68:01
[14] = target: T2, HLA-A*30:02; conditions: time points 0-8 h
[15] = percent relative the binding of positive control peptide […]
[16] = percent relative the binding of positive control peptide KYFDEHYEY
[17] = percent relative the binding of positive control peptide KTKDIVNGL
[18] = percent relative the binding of positive control peptide RYLKDQQLL
[19] = percent relative the binding of positive control peptide KTGGPIYKR
[20] = percent relative the binding of positive control peptide KIQNFRVYY
[21] = percent relative the binding of positive control peptide IAMESIVIW
[22] = peptide titrated 10−4 to 10−9 M
[23] = percent relative the binding of positive control peptide FLPSDFFPSV

| Substance | Bind C*07:01 [1, 15] [%] | Bind A*30:01 [2, 15] [%] | Bind A*24:02 [3, 15] [%] | Bind A*68:01 [4, 15] [%] | Bind A*30:02 [5, 15] [%] | Bind B*58:01 [7, 15] [%] | Bind A*02:01 [9, 15] [%] | Bind B*07:02 [10] [%] | O-rate A*68:01 (t1/2) [12] [h] | Aff A*68:01 (ED50) [13] | other results |
| --- | --- | --- | --- | --- | --- | --- | --- | --- | --- | --- | --- |
| AAGGHNAVF | 39 | 15 | 34 | 0 | 67 | 101 | 31 | 9 | – | – | O-rate B*58:01 (t1/2) [6]: 0.7 h; Aff B*58:01 (ED50) [8]: 2e-07 M |
| AGCQTYKW E | 0 | 3 | 31 | 4 | 18 | 121 | 12 | 2 | – | – | O-rate B*58:01 (t1/2) [6]: 2 h; Aff B*58:01 (ED50) [8]: 2e-07 M |
| AMGDAGGYK | 0 | 28 | 0 | 94 | 80 | 0 | 31 | 8 | 3.2 | 5e-07 M | Aff A*30:02 (ED50) [11]: 700 nM; O-rate A*30:02 (t1/2) [14]: 1.6 h |
| ANTMAMMAR [Rv0288_78–86] | 12 | – | – | 147 | – | 0 | – | – | 2.4 | 3e-06 M | – |
| AVFNFPPNG | 1 | 21 | 23 | 81 | 101 | 33 | 69 | 0 | 0.2 | 8E -09 M | Aff A*30:02 (ED50) [11]: 3000 nM; O-rate A*30:02 (t1/2) [14]: 0.3 h |
| DW YSPACGK | 0 | 11 | 0 | 136 | 0 | 0 | 10 | 0 | 0.6 | 2E -07 M | – |
| EAAASAIQG [Rv3875_12–20] | – | – | – | – | – | – | – | 5 | 0.8 | – | Bind C*07:01 [1, 16]: 0%; Bind A*30:01 [2, 17]: 0%; Bind A*24:02 [3, 18]: 0%; Bind A*68:01 [4, 19]: 59%; Bind A*30:02 [5, 20]: 0%; Bind B*58:01 [7, 21]: 0%; Aff A*68:01 (ED50) [13, 22]: 8e-07 M; Bind A*02:01 [9, 23]: 0% |
| EANTMAMMA [Rv0288_77–85] | 3 | – | – | 83 | – | 0 | – | – | 1.9 | 0.0007 M | – |
| EAYQGVQQK [Rv3875_49–57] | – | – | – | – | – | – | – | 10 | 7.5 | – | Bind C*07:01 [1, 16]: 0%; Bind A*30:01 [2, 17]: 0%; Bind A*24:02 [3, 18]: 0%; Bind A*68:01 [4, 19]: 74%; Bind A*30:02 [5, 20]: 0%; Bind B*58:01 [7, 21]: 0%; Aff A*68:01 (ED50) [13, 22]: 4e-08 M; Bind A*02:01 [9, 23]: 0% |
| ETFLTSELP | 0 | 4 | 2 | 103 | 0 | 16 | 25 | 5 | 0.1 | 7e-07 M | – |
| LPQW LSANR | 0 | 29 | 26 | 167 | 0 | 0 | 6 | 31 | 4.1 | 6E -08 M | – |
| LTKLAAAWG [Rv3875_36-44] | – | – | – | – | – | – | – | 6 | – | – | Bind C*07:01 [1, 16]: 13%; Bind A*30:01 [2, 17]: 13%; Bind A*24:02 [3, 18]: 0%; Bind A*68:01 [4, 19]: 21%; Bind A*30:02 [5, 20]: 0%; O-rate B*58:01 (t1/2) [6]: 1.2 h; Bind B*58:01 [7, 21]: 47%; Aff B*58:01 (ED50) [8, 22]: 7e-07 M; Bind A*02:01 [9, 23]: 15% |
| MAMMARDTA [Rv0288_81–89] | 19 | – | – | 96 | – | 23 | – | – | 2.0 | 5e-06 M | – |
| NGT HSWEYW | 3 | 0 | 42 | 35 | 83 | 74 | 0 | 4 | – | – | Aff A*30:02 (ED50) [11]: 1000 nM; O-rate B*58:01 (t1/2) [6]: 1.9 h; O-rate A*30:02 (t1/2) [14]: 1.6 h; Aff B*58:01 (ED50) [8]: 4E -08 M |
| NTMAMMARD [Rv0288_79–87] | 0 | – | – | 67 | – | 0 | – | – | 2.3 | 7e-05 M | – |
| SLTKLAAAW [Rv3875_35–43] | – | – | – | – | – | – | – | 5 | – | – | Bind C*07:01 [1, 16]: 8%; Bind A*30:01 [2, 17]: 6%; Bind A*24:02 [3, 18]: 12%; Bind A*68:01 [4, 19]: 10%; Bind A*30:02 [5, 20]: 50%; O-rate B*58:01 (t1/2) [6]: 0.9 h; Bind B*58:01 [7, 21]: 48%; Aff B*58:01 (ED50) [8, 22]: 4e-07 M; Bind A*02:01 [9, 23]: 47% |
| SSFYSDWYS | 1 | 0 | 0 | 103 | 72 | 0 | 53 | 0 | 0.1 | 1e-07 M | – |
| TMAMMARDT [Rv0288_80–88] | 0 | – | – | 47 | – | 0 | – | – | 2.7 | 6e-05 M | – |
| WGAQLNAMK | 5 | 0 | 0 | 153 | 67 | 0 | 7 | 0 | 2.4 | 3E -07 M | – |
